Measurements reported in patent US10285983B2, “3-(1H-pyrrolo[2,3-B]pyridin-2-yl)-1H-pyrazolo[3,4-B] pyridines and therapeutic uses thereof” (Samumed, LLC, priority 2015, dated 2019).

Tests used:
Assay type in all cases: cell-based
[1] = tested on: Wnt activity (Sp5-Luc reporter, SW480 colon carcinoma cells); experiment: Wnt activity screening assay, Sp5-Luc reporter gene in SW480 cells; details: Homo sapiens; for inhibition at 10 µM: given for EC50 >10 μM, read-out: percent inhibition at 10 μM; for EC50: overnight incubation
Summary of the method: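 SW480 colon carcinoma cells stably expressing firefly luciferase under a human Sp5 promoter (eight TCF/LEF sites), plated in 1% FBS medium. 10-point 1:3 dilutions from 10 μM, 0.1% DMSO final, overnight at 37 °C; luminescence normalized to DMSO, four-parameter fit for EC50, % inhibition at 10 μM if EC50 >10 μM.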

SW480 colon cancer cells = experiment: Cell viability assay (CellTiter-Blue); details: Homo sapiens, 96 h, four days; for inhibition at 10 µM: given for EC50 >10 μM, read-out: percent inhibition at 10 μM
Summary of the method: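 Approximately 2×10^3 SW480 cells per well are seeded with compound (8 points, threefold steps, top 10 μM) and incubated four days at 37 °C. CellTiter-Blue is then added for about 3 h and fluorescence read. Non-linear regression gives EC50; for values beyond 10 μM, percent inhibition at that concentration is listed.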

[2] = tested on: primary human fibroblasts derived from IPF patients (LL29 cells); experiment: Inhibition of fibrotic process, αSMA staining in TGF-β1 treated LL29 fibroblasts; details: Fibroblast, 96 h, TGF-β1 20 ng/mL, 4 days; for EC50: % αSMA positive cells; for inhibition at 10 µM: given for EC50 >10 μM, read-out: percent inhibition at 10 μM
Summary of the method: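 IPF-patient LL29 lung fibroblasts in 1% FBS medium received compound (11-point, 1:2 dilution, 0.1% DMSO) plus TGF-β1 20 ng/mL, 4 days at 37 °C. Percent αSMA-positive cells among SYTOX-negative cells quantified by immunofluorescence imaging, normalized to TGF-β1/DMSO wells. EC50 by non-linear regression on triplicates; above 10 μM, % inhibition at 10 μM given.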

Compound	EC50 [1] [µM]	EC50 (SW480 colon cancer cells) [µM]	inhibition at 10 µM [1] [%]	inhibition at 10 µM (SW480 colon cancer cells) [%]	EC50 [2] [µM]	inhibition at 10 µM [2] [%]
Fc1ccc(-c2ccnc3[nH]c(-c4n[nH]c5ncc(-c6cncc(CN7CCCCC7)c6)cc45)cc23)cc1 [Compound 43, 3-(4-(4-Fluorophenyl)-1H-pyrrolo[2,3-b]pyridin-2-yl)-5-(5-(piperidin-1-ylmethyl)pyridin-3-yl)-1H-pyrazolo[3,4-b]pyridine]	> 10	> 10	2.8	6.9	> 10	0
Fc1ccc(-c2ccnc3[nH]c(-c4n[nH]c5ncc(-c6cncc(CN7CCCC7)c6)cc45)cc23)cc1 [Compound 42, 3-(4-(4-Fluorophenyl)-1H-pyrrolo[2,3-b]pyridin-2-yl)-5-(5-(pyrrolidin-1-ylmethyl)pyridin-3-yl)-1H-pyrazolo[3,4-b]pyridine]	> 10	> 10	26	24.8	4.98	–
O=C(Nc1cncc(-c2cnc3[nH]nc(-c4cc5cccnc5[nH]4)c3c2)c1)c1ccccc1 [Compound 263, N-(5-(3-(1H-Pyrrolo[2,3-b]pyridin-2-yl)-1H-pyrazolo[3,4-b]pyridin-5-yl)pyridin-3-yl)benzamide]	> 10	> 10	29.7	21.1	0.363	–
Oc1cncc(-c2cnc3[nH]nc(-c4cc5c(-c6ccc(F)cc6)ccnc5[nH]4)c3c2)c1 [Compound 533, 5-(3-(4-(4-Fluorophenyl)-1H-pyrrolo[2,3-b]pyridin-2-yl)-1H-pyrazolo[3,4-b]pyridin-5-yl)pyridin-3-ol]	> 10	> 10	3.4	19	6.76	–
Fc1cccc(-c2ccnc3[nH]c(-c4n[nH]c5ncc(-c6cncc(OCc7ccccc7)c6)cc45)cc23)c1 [Compound 518, 5-(5-(Benzyloxy)pyridin-3-yl)-3-(4-(3-fluorophenyl)-1H-pyrrolo[2,3-b]pyridin-2-yl)-1H-pyrazolo[3,4-b]pyridine]	> 10	> 10	0	16.3	> 10	0
CC(C)(C)CC(=O)Nc1cncc(-c2cnc3[nH]nc(-c4cc5cccnc5[nH]4)c3c2)c1 [Compound 268, N-(5-(3-(1H-Pyrrolo[2,3-b]pyridin-2-yl)-1H-pyrazolo[3,4-b]pyridin-5-yl)pyridin-3-yl)-3,3-dimethylbutanamide]	0.86	1.99	–	–	0.42	–
CN(C)CCOc1cncc(-c2cnc3[nH]nc(-c4cc5c(-c6cccnc6)ccnc5[nH]4)c3c2)c1 [Compound 563, N,N-dimethyl-2-((5-(3-(4-(pyridin-3-yl)-1H-pyrrolo[2,3-b]pyridin-2-yl)-1H-pyrazolo[3,4-b]pyridin-5-yl)pyridin-3-yl)oxy)ethan-1-amine]	> 10	> 10	20.6	5.3	2.44	–
c1ccc(CNCc2cncc(-c3cnc4[nH]nc(-c5cc6c(-c7ccncc7)ccnc6[nH]5)c4c3)c2)cc1 [Compound 136, N-Benzyl-1-(5-(3-(4-(pyridin-4-yl)-1H-pyrrolo[2,3-b]pyridin-2-yl)-1H-pyrazolo[3,4-b]pyridin-5-yl)pyridin-3-yl)methanamine]	> 10	> 10	0	14.9	3.04	–
CN(C)Cc1cncc(-c2cnc3[nH]nc(-c4cc5c(-c6cccnc6)ccnc5[nH]4)c3c2)c1 [Compound 97, N,N-Dimethyl-1-(5-(3-(4-(pyridin-3-yl)-1H-pyrrolo[2,3-b]pyridin-2-yl)-1H-pyrazolo[3,4-b]pyridin-5-yl)pyridin-3-yl)methanamine]	> 10	> 10	0	19.6	> 10	0
Fc1cccc(-c2ccnc3[nH]c(-c4n[nH]c5ncc(-c6ccncc6)cc45)cc23)c1 [Compound 18, 3-(4-(3-Fluorophenyl)-1H-pyrrolo[2,3-b]pyridin-2-yl)-5-(pyridin-4-yl)-1H-pyrazolo[3,4-b]pyridine]	> 10	> 10	11.7	23.2	1.45	–
CCCCC(=O)Nc1cncc(-c2cnc3[nH]nc(-c4cc5cccnc5[nH]4)c3c2)c1 [Compound 271, N-(5-(3-(1H-Pyrrolo[2,3-b]pyridin-2-yl)-1H-pyrazolo[3,4-b]pyridin-5-yl)pyridin-3-yl)pentanamide]	> 10	> 10	6.5	11.4	5.35	–
CCC(=O)Nc1cncc(-c2cnc3[nH]nc(-c4cc5c(-c6cccc(F)c6)ccnc5[nH]4)c3c2)c1 [Compound 1, N-(5-(3-(4-(3-Fluorophenyl)-1H-pyrrolo[2,3-b]pyridin-2-yl)-1H-pyrazolo [3,4-b]pyridin-5-yl)pyridin-3-yl)propionamide]	> 10	> 10	46.1	9.8	> 10	0
O=C(Nc1cncc(-c2cnc3[nH]nc(-c4cc5c(-c6ccncc6)ccnc5[nH]4)c3c2)c1)C1CCCCC1 [Compound 135, N-(5-(3-(4-(Pyridin-4-yl)-1H-pyrrolo[2,3-b]pyridin-2-yl)-1H-pyrazolo[3,4-b]pyridin-5-yl)pyridin-3-yl)cyclohexanecarboxamide]	> 10	> 10	16.4	13.9	> 10	19.8

The next lines start with results.

EC50 [1] [µM]	EC50 (SW480 colon cancer cells) [µM]	Compound	inhibition at 10 µM [1] [%]	inhibition at 10 µM (SW480 colon cancer cells) [%]	EC50 [2] [µM]	inhibition at 10 µM [2] [%]
> 10	> 10	Fc1cccc(-c2ccnc3[nH]c(-c4n[nH]c5ncc(-c6ccccn6)cc45)cc23)c1 [Compound 28, 3-(4-(3-Fluorophenyl)-1H-pyrrolo[2,3-b]pyridin-2-yl)-5-(pyridin-2-yl)-1H-pyrazolo[3,4-b]pyridine]	15	16.3	> 10	52
> 10	> 10	CC(C)C(=O)Nc1cncc(-c2cnc3[nH]nc(-c4cc5c(-c6cccnc6)ccnc5[nH]4)c3c2)c1 [Compound 93, N-(5-(3-(4-(Pyridin-3-yl)-1H-pyrrolo[2,3-b]pyridin-2-yl)-1H-pyrazolo[3,4-b]pyridin-5-yl)pyridin-3-yl)isobutyramide]	15.4	10.1	> 10	42.1
> 10	> 10	Fc1cccc(-c2ccnc3[nH]c(-c4n[nH]c5ncc(-c6cccnc6)cc45)cc23)c1 [Compound 4, 3-(4-(3-Fluorophenyl)-1H-pyrrolo[2,3-b]pyridin-2-yl)-5-(pyridin-3-yl)-1H-pyrazolo[3,4-b]pyridine]	7.6	17.5	2.72	–
> 10	> 10	CCNCc1cncc(-c2cnc3[nH]nc(-c4cc5c(-c6ccccc6F)ccnc5[nH]4)c3c2)c1 [Compound 62, N-((5-(3-(4-(2-Fluorophenyl)-1H-pyrrolo[2,3-b]pyridin-2-yl)-1H-pyrazolo [3,4-b]pyridin-5-yl)pyridin-3-yl)methyl)ethanamine]	0	38.2	> 10	0
> 10	> 10	Fc1ccc(-c2ccnc3[nH]c(-c4n[nH]c5ncc(-c6cncnc6)cc45)cc23)cc1 [Compound 55, 3-(4-(4-Fluorophenyl)-1H-pyrrolo[2,3-b]pyridin-2-yl)-5-(pyrimidin-5-yl)-1H-pyrazolo[3,4-b]pyridine]	13.6	3.5	> 10	1.8
> 10	> 10	Cc1ccncc1-c1cnc2[nH]nc(-c3cc4c(-c5ccc(F)cc5)ccnc4[nH]3)c2c1 [Compound 33, 3-(4-(4-Fluorophenyl)-1H-pyrrolo[2,3-b]pyridin-2-yl)-5-(4-methylpyridin-3-yl)-1H-pyrazolo[3,4-b]pyridine]	2.7	25	4.51	–
> 10	> 10	CN(C)Cc1cncc(-c2cnc3[nH]nc(-c4cc5c(-c6cccc(F)c6)ccnc5[nH]4)c3c2)c1 [Compound 13, 1-(5-(3-(4-(3-Fluorophenyl)-1H-pyrrolo[2,3-b]pyridin-2-yl)-1H-pyrazolo [3,4-b]pyridin-5-yl)pyridin-3-yl)-N,N-dimethylmethanamine]	22.6	11.6	> 10	5.2
